The record followed here is article PMC3401165, “Regulation of the Cyanobacterial CO2-Concentrating Mechanism Involves Internal Sensing of NADP^+ and α-Ketogutarate Levels by Transcription Factor CcmR” (PLoS ONE, 2012).

One data set addresses T1, CmpR (Synechocystis sp. PCC 6803, UniProt Q55459).
T1 construct: heterologously expressed in E. coli by essentially the same approach as His-tagged CcmR
T1 sequence (Q55459 1-304): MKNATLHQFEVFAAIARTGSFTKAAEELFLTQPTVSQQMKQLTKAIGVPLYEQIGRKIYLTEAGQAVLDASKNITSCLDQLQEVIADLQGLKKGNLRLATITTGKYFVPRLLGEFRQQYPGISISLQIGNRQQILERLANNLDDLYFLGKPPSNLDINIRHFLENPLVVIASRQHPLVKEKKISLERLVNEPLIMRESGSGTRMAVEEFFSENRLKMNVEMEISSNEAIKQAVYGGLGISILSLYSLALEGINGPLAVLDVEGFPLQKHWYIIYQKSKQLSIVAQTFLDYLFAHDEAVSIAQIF
Kind of data set: SPR difference curves, CmpR binding to immobilised operator DNA. The settings on record: 1.5 µM CmpR; ligand 10, 100, 500 µM; cmpA promoter DNA; effector (co-activator).

The target of a further data set is T2, CcmR (Synechocystis sp. PCC 6803, UniProt P73862).
T2 construct: gene rbcR; recombinant N-terminally His-tagged, heterologously expressed
T2 sequence (P73862 1-316): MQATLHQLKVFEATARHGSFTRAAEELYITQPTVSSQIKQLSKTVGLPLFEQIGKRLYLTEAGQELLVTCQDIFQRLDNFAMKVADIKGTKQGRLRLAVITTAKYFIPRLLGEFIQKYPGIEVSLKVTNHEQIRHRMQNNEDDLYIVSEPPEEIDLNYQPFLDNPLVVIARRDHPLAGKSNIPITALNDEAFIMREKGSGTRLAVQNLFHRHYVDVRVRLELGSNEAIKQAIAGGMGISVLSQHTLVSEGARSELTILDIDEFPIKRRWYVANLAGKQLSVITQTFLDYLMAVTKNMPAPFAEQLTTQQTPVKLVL
Kind of data set: SPR difference curves, CcmR binding to immobilised operator DNA. Conditions: 1.5 µM CcmR; ligand 10, 100, 500 µM; pndhF3 DNA; 10 mM Pipes pH 7.4, 300 mM NaCl; effector (co-repressor).

In data set [1] the test system is T3, CcmR (Synechocystis sp. PCC 6803), ORF:206cd751.
T3 sequence: T2 sequence (P73862 1-316)
The data set can be described thus: SPR. The settings on record: SPR: 10 mM Pipes pH 7.4, 300 mM NaCl, 0.02% Tween-20, 25 uL/min, temperature not stated; EMSA: room temperature 20 min, 6% native PAGE (50 mM Tris pH 8.5 …). In general terms: Mobility shift assays separate free from complexed probe on a gel.

For `O=C(O)COP(=O)(O)O` [2-phosphoglycolate], at CmpR, the “SPR difference curves, CmpR binding to immobilised operator DNA” value is “the presence of 2-PG and RuBP increased binding”.

Consider `O=C(O)CCC(=O)C(=O)O` [α-KG], for which the “SPR difference curves, CcmR binding to immobilised operator DNA” value on CcmR is “CcmR only showed modified binding only in the presence of NADP^+ and α-KG”. Regarding `NC(=O)c1ccc[n+]([C@@H]2O[C@H](COP(=O)(O)OP(=O)(O)OC[C@H]3O[C@@H](n4cnc5c(N)ncnc54)[C@H](OP(=O)(O)O)[C@@H]3O)[C@@H](O)[C@H]2O)c1` [NADP^+], on CcmR, the “SPR difference curves, CcmR binding to immobilised operator DNA” value was “CcmR only showed modified binding only in the presence of NADP^+ and α-KG”.

In the case of `O=C(COP(=O)(O)O)[C@H](O)[C@H](O)COP(=O)(O)O` [ribulose-1,5-bisphosphate], at CmpR, the “SPR difference curves, CmpR binding to immobilised operator DNA” value is “the presence of 2-PG and RuBP increased binding”.

As to “GCTCCCCGGACTAAGCTTGTCAAAATCATTGGCTTTATTCTATCATTGGTTATCTAACAACAATCCCAGGTCTATGAAAGTGAGTGTAATAGCCATAGGTCTATTTTAGTTATTGACTTCAGCACATCCTAGACCCAAG (double strand) [pccmR (SPR)]”, in data set [1], the binding entry is given as “binds”. With “AGTCAAGCGACAATGGTATAACCTAGATGCATAGAAAGAGTGTTATTTGTTACACCATATCATAGGGGAAATAAAATTCCAGATCAACAACCATTTGCTTAAGTGAATGATAAGTCTGGGTAATTGGAGGAAGAGGCAGGCTA (double strand) [pndhF3-2]”, the binding result in data set [1] is “binds”.
